Measured values reported in US11117907B2, “Curcuminoid-inspired synthetic compounds as anti-tumor agents” (University of North Florida Board of Trustees, priority 2017, dated 2021).

Compound `Fc1ccc(C=Cc2cc(C=Cc3ccc(F)cc3)n(-c3ccc(OC(F)(F)F)cc3)n2)cc1` [compound 32 of FIG. 43, 3,5-bis-(4-Fluorostyryl)-1-(4-trifluoromethoxyphenyl)pyrazole] has a melting point of 155 to 156 °C.
`O=C(/C=C/c1ccc(C(F)(F)F)cc1)C(F)(F)C(=O)/C=C/c1ccc(C(F)(F)F)cc1` [compound 21 of FIG. 2, (1E,6E)-4,4-Difluoro-1,7-bis(4-trifluoromethyl-phenyl)hepta-1,6-diene-3,5-dione] showed a melting point of 75 to 76 °C.
In the case of `COc1ccc(/C=C/C(=O)/C(F)=C(O)/C=C/c2ccc(OC)c(OC)c2)cc1OC` [compound 8 of FIG. 2, (1E,4E,6E)-4-Fluoro-5-hydroxy-1,7-bis(3,4-dimethoxyphenyl)hepta-1,4,6-trien-3-one], the melting point is reported as 145 to 146 °C.
With `FC(F)(F)Sc1ccc(C=Cc2cc(C=Cc3ccc(SC(F)(F)F)cc3)on2)cc1` [compound 30 of FIG. 43, 3,5-bis-(4-Trifluoromethylthiostyryl)-isoxazole] the melting point was 165 to 167 °C.
For `COc1cc(F)c(/C=C/C(=O)C(F)C(=O)/C=C/c2cc(OC)c(OC)cc2F)cc1OC` [compound 18 of FIG. 2, (1E,6E)-4-Fluoro-1,7-bis(3,4-dimethoxy-6-fluorophenyl)hepta-1,6-diene-3,5-dione], the melting point was > 260 °C.
Work on `O=C(/C=C/c1cc2ccccc2o1)/C=C(O)\C=C\c1cc2ccccc2o1` [compound 9 of Example 5, (1E,4E,6E)-5-Hydroxy-1,7-bis(benzo[b]furan-2-yl)hepta-1,4,6-trien-3-one] yielded a melting point of 178 to 180 °C.
Work on `O=C(/C=C/c1csc2ccccc12)/C=C(O)\C=C\c1csc2ccccc12` [compound 7 of Example 5, (1E,4E,6E)-5-Hydroxy-1,7-bis(benzo[b]thiophen-3-yl)hepta-1,4,6-trien-3-one] yielded a melting point of 159 to 160 °C.
Compound `FC(F)(F)Sc1ccc(C=Cc2cc(C=Cc3ccc(SC(F)(F)F)cc3)n(-c3cccc(C(F)(F)F)c3)n2)cc1` [compound 29 of FIG. 43, 3,5-bis-(4-trifluoromethylthiostyryl)-1-(3-trifluoromethylphenyl)pyrazole] has a melting point of 121 to 122 °C.
For `COc1cc(F)c(C=Cc2cc(C=Cc3cc(OC)c(OC)cc3F)n(-c3cccc(C(F)(F)F)c3)n2)cc1OC` [compound 24 of FIG. 43, 3,5-bis-(6-Fluoro-3,4-dimethoxystyryl)-1-(3-trifluoromethylphenyl)pyrazole], the melting point was 130 to 134 °C.
In the case of `COc1cc(F)c(C=Cc2cc(C=Cc3cc(OC)c(OC)cc3F)n(-c3ccc(OC(F)(F)F)cc3)n2)cc1OC` [compound 23 of FIG. 43, 3,5-bis-(6-Fluoro-3,4-dimethoxystyryl)-1-(4-trifluoromethoxyphenyl)pyrazole], the melting point is reported as 80 to 83 °C.
For `FC(F)(F)Sc1ccc(C=Cc2cc(C=Cc3ccc(SC(F)(F)F)cc3)n(-c3ccccc3)n2)cc1` [compound 28 of FIG. 43, 3,5-bis-(4-Trifluoromethylthiostyryl)-1-phenylpyrazole], the melting point was 119 to 121 °C.
For `COc1cc(F)c(C=Cc2cc(C=Cc3cc(OC)c(OC)cc3F)n(-c3ccc(C#N)cc3)n2)cc1OC` [compound 26 of FIG. 43, 3,5-bis-(6-Fluoro-3,4-dimethoxystyryl)-1-(4-cyanophenyl)pyrazole], the melting point was 91 to 93 °C.
Compound `COc1cc(C=Cc2cc(C=Cc3cc(OC)c(OC)c(OC)c3)n(-c3ccc(OC(F)(F)F)cc3)n2)cc(OC)c1OC` [compound 42 of FIG. 43, 3,5-bis-(3,4,5-Trimethoxy-styryl)-1-(4-trifluoromethoxyphenyl) pyrazole] has a melting point of 140 to 142 °C.
`COc1cc(F)c(/C=C/C(=O)C(F)(F)C(=O)/C=C/c2cc(OC)c(OC)cc2F)cc1OC` [compound 16 of FIG. 2, (1E,6E)-4,4-Difluoro-1,7-bis(3,4-dimethoxy-6-fluorophenyl)hepta-1,6-diene-3,5-dione] gave a melting point of 162 to 163 °C.
`Fc1ccc(C=Cc2cc(C=Cc3ccc(F)cc3)n(-c3ccccc3)n2)cc1` [compound 31 of FIG. 43, 3,5-bis-(4-Fluorostyryl)-1-phenylpyrazole] showed a melting point of 109 to 111 °C.
Work on `COc1cc(F)c(C=Cc2cc(C=Cc3cc(OC)c(OC)cc3F)n(-c3ccccc3)n2)cc1OC` [compound 22 of FIG. 43, 3,5-bis-(6-Fluoro-3,4-dimethoxystyryl)-1-phenylpyrazole] yielded a melting point of 142 to 144 °C.
In the case of `COc1cc(C=Cc2cc(C=Cc3cc(OC)c(OC)c(OC)c3)n(-c3ccccc3)n2)cc(OC)c1OC` [compound 41 of FIG. 43, 3,5-bis-(3,4,5-Trimethoxy-styryl)-1-phenylpyrazole], the melting point is reported as 144 to 146 °C.
Work on `O=C(/C=C/c1ccc(OC(F)(F)F)cc1)/C=C(O)\C=C\c1ccc(OC(F)(F)F)cc1` [compound 17 of FIG. 35, (1E,4E,6E)-5-Hydroxy-1,7-bis(4-trifluoromethoxyphenyl)hepta-1,4,6-trien-3-one] yielded a melting point of 108 to 111 °C.
`O=C(/C=C/c1ccc(F)cc1)/C(F)=C(O)/C=C/c1ccc(F)cc1` [compound 13 of FIG. 2, (1E,4E,6E)-4-Fluoro-1,7-bis(4-fluorophenyl)-5-hydroxy-hepta-1,4,6-trien-3-one] gave a melting point of 152 to 153 °C.
Work on `O=C(/C=C/c1ccc(F)cc1)C(F)(F)C(=O)/C=C/c1ccc(F)cc1` [compound 12 of FIG. 2, (1E,6E)-4,4-Difluoro-1,7-bis(4-fluorophenyl)hepta-1,6-diene-3,5-dione] yielded a melting point of 72 to 73 °C.
Compound `COc1cc(F)c(C=Cc2cc(C=Cc3cc(OC)c(OC)cc3F)n(-c3cc(F)cc(F)c3)n2)cc1OC` [compound 25 of FIG. 43, 3,5-bis-(6-Fluoro-3,4-dimethoxystyryl)-1-(3,5-difluorophenyl) pyrazole] has a melting point of 115 to 117 °C.
Compound `COc1ccc(C=Cc2cc(C=Cc3ccc(OC)c(OC)c3OC)on2)c(OC)c1OC` [compound 40 of FIG. 43, 3,5-bis-(2,3,4-Trimethoxystyryl)-isoxazole] has a melting point of 136 to 137 °C.
`O=C(/C=C/c1ccc(C(F)(F)F)cc1)/C=C(O)\C=C\c1ccc(C(F)(F)F)cc1` [compound 20 of FIG. 2, (1E,4E,6E)-1,7-Bis(4-trifluoromethyl-phenyl)-5-hydroxy-hepta-1,4,6-trien-3-one] gave a melting point of 153 to 154 °C.
With `COc1cc(F)c(/C=C/C(=O)/C(F)=C(O)/C=C/c2cc(OC)c(OC)cc2F)cc1OC` [compound 17 of FIG. 2, (1E,4E,6E)-4-Fluoro-5-hydroxy-1,7-bis(3,4-dimethoxy-6-fluorophenyl)hepta-1,4,6-trien-3-one] the melting point was 148 to 150 °C.
Work on `COc1ccc(/C=C/C(=O)C(F)(F)C(=O)/C=C/c2ccc(OC)c(OC)c2)cc1OC` [compound 7 of FIG. 2, (1E,6E)-4,4-Difluoro-1,7-bis(3,4-dimethoxyphenyl)hepta-1,6-diene-3,5-dione] yielded a melting point of 148 to 149 °C.
Compound `COc1ccc(/C=C/C(=O)/C=C(O)\C=C\c2ccc(OC)c(OCc3ccccc3)c2)cc1OCc1ccccc1` [compound 3 of FIG. 35, (1E,4E,6E)-5-Hydroxy-1,7-bis(3-benzyloxy-4-methoxyphenyl)hepta-1,4,6-trien-3-one] has a melting point of 153 to 155 °C.
In the case of `COc1cc(/C=C/C(=O)/C(F)=C(O)/C=C/c2ccc(O)c(OC)c2)ccc1O` [compound 4 of FIG. 2, (1E,4E,6E)-4-Fluoro-5-hydroxy-1,7-bis(4-hydroxy-3-methoxyphenyl)hepta-1,4,6-trien-3-one], the melting point is reported as 154 to 155 °C.
Compound `Fc1ccc(C=Cc2cc(C=Cc3ccc(F)cc3)n(-c3ccc(F)c(F)c3)n2)cc1` [compound 34 of FIG. 43, 3,5-bis-(4-Fluorostyryl)-1-(3,4-difluorophenyl)pyrazole] has a melting point of 169 to 170 °C.
Work on `COc1cc(F)c(/C=C/C(=O)/C=C(O)\C=C\c2cc(OC)c(OC)cc2F)cc1OC` [compound 15 of FIG. 2, (1E,4E,6E)-5-Hydroxy-1,7-bis(3,4-dimethoxy-6-fluorophenyl)hepta-1,4,6-trien-3-one] yielded a melting point of 154 to 156 °C.
In the case of `O=C(/C=C/c1ccc(F)c(F)c1F)/C=C(O)\C=C\c1ccc(F)c(F)c1F` [compound 21 of FIG. 35, (1E,4E,6E)-5-Hydroxy-1,7-bis(2,3,4-trifluorophenyl)hepta-1,4,6-trien-3-one], the melting point is reported as 156 to 158 °C.
For `Fc1ccc(C=Cc2cc(C=Cc3ccc(F)cc3)n(-c3cccc(C(F)(F)F)c3)n2)cc1` [compound 33 of FIG. 43, 3,5-bis-(4-Fluorostyryl)-1-(3-trifluoromethylphenyl)pyrazole], the melting point was 98 to 100 °C.
`O=C(/C=C/c1ccc(C(F)(F)F)cc1)/C(F)=C(O)/C=C/c1ccc(C(F)(F)F)cc1` [compound 22 of FIG. 2, (1E,4E,6E)-4-Fluoro-1,7-bis(4-trifluoromethyl-phenyl)-5-hydroxy-hepta-1,4,6-trien-3-one] gave a melting point of 144 to 146 °C.
`O=C(/C=C/c1ccc(OCc2ccccc2)c(OCc2ccccc2)c1)/C=C(O)\C=C\c1ccc(OCc2ccccc2)c(OCc2ccccc2)c1` [compound 5 of FIG. 35, (1E,4E,6E)-5-Hydroxy-1,7-bis(3,4-dibenzyloxyphenyl)hepta-1,4,6-trien-3-one] gave a melting point of 150 to 153 °C.
`FC(F)(F)c1ccc(C=Cc2cc(C=Cc3ccc(C(F)(F)F)cc3)n(-c3ccccc3)n2)cc1` [compound 37 of FIG. 43, 3,5-bis-(4-Trifluoromethylstyryl)-1-phenylpyrazole] showed a melting point of 137 to 139 °C.
For `O=C(/C=C/c1cccc(OC(F)(F)F)c1)/C=C(O)\C=C\c1cccc(OC(F)(F)F)c1` [compound 15 of FIG. 35, (1E,4E,6E)-5-Hydroxy-1,7-bis(3-trifluoromethoxyphenyl)hepta-1,4,6-trien-3-one], the melting point was 68 to 70 °C.
Compound `N#Cc1ccc(-n2nc(C=Cc3ccc(F)cc3)cc2C=Cc2ccc(F)cc2)cc1` [compound 35 of FIG. 43, 3,5-bis-(4-Fluorostyryl)-1-(4-cyanophenyl)pyrazole] has a melting point of 209 to 211 °C.
Compound `COc1ccc(/C=C/C(=O)/C=C(O)\C=C\c2ccc(OC)c(OC)c2OC)c(OC)c1OC` [compound 7 of FIG. 35, (1E,4E,6E)-5-Hydroxy-1,7-bis(2,3,4-trimethoxyphenyl)hepta-1,4,6-trien-3-one] has a melting point of 104 to 106 °C.
